# Experimental data published in ChEMBL document CHEMBL1140265, “Inhibitors of HCV NS5B polymerase. Part 1: Evaluation of the southern region of (2Z)-2-(benzoylamino)-3-(5-phenyl-2-furyl)acrylic acid” (Bioorg Med Chem Lett, 2005).
# Assays:
# [1] = molecular target: RNA-directed RNA polymerase (Hepacivirus hominis, UniProt O39930); test: Inhibitory concentration against Hepatitis C virus NS5B polymerase
# Hepatitis C virus [2] = test: Cytotoxic concentration against Hepatitis C virus replication using sub-genomic replicon assay; type: functional, Hepacivirus hominis
# [3] = Half-life in rat after 5 mpk dosage administration; type: ADME, organism-based; details: in vivo, 5 mg/kg
# Hepatitis C virus [4] = test: Effective concentration against Hepatitis C virus replication using sub-genomic replicon assay; type: functional, Hepacivirus hominis; details: read-out: ED50 (the source's name)
# [5] = Maximum concentration in plasma levels in rat after 5 mpk dosage administration; type: ADME, organism-based; set-up: dose 5 mpk; details: 5 mg/kg
# [6] = Bioavailability in rat (dose 5 mg/kg); type: ADME, organism-based; details: in vivo
# [7] = Clearance at low levels in rat after 5 mpk dosage administration; type: ADME, organism-based; details: in vivo, 5 mg/kg
# Chain of RNA-directed RNA polymerase (O39930 whole entry): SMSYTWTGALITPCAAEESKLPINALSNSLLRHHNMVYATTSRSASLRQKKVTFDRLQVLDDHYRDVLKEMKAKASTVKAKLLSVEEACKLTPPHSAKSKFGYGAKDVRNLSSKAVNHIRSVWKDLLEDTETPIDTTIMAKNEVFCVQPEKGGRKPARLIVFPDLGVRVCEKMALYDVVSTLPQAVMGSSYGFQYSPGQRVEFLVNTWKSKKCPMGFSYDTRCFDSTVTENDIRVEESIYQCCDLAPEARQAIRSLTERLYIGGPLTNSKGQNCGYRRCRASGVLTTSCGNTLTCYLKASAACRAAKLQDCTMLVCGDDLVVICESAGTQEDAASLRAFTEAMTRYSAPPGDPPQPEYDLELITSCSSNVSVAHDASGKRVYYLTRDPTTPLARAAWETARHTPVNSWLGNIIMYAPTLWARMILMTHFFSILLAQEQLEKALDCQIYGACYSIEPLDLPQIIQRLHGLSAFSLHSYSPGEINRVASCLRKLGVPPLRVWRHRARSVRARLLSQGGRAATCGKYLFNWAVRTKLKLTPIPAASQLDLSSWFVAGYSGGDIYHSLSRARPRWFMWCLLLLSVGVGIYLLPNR
IC50 [1] [µM],Compound,further results
5.6,O=C(O)/C(=C/c1ccc(-c2ccccc2C(F)(F)F)o1)NC(=O)c1ccccc1,–
12,O=C(O)/C(=C/c1ccc(-c2ccc(F)cc2)o1)NC(=O)c1ccccc1,–
4.6,O=C(O)/C(=C/c1ccc(-c2ccc(Cl)cc2)o1)NC(=O)c1ccccc1,–
20,O=C(O)/C(=C/c1ccc(-c2ccccc2CO)s1)NC(=O)c1ccccc1,–
47,N#Cc1ccccc1Oc1ccc(/C=C(\NC(=O)c2ccccc2)C(=O)O)cc1,–
15,COc1ccccc1Oc1ccc(/C=C(\NC(=O)c2ccccc2)C(=O)O)cc1,–
27,CSc1ccc(-c2ccc(/C=C(\NC(=O)c3ccccc3)C(=O)O)o2)cc1,–
66,O=C(O)/C(=C/c1ccc(-c2cccc(OC(F)(F)F)c2)o1)NC(=O)c1ccccc1,–
0.2,Cc1cccc(Cl)c1Oc1ccc(/C=C(\NC(=O)c2ccccc2)C(=O)O)cc1,–
1.8,CSc1ccccc1Oc1ccc(/C=C(\NC(=O)c2ccccc2)C(=O)O)cc1,–
11,O=C(O)/C(=C/c1cccc(-c2ccccc2Cl)n1)NC(=O)c1ccccc1,–
4,O=C(O)/C(=C/c1ccc(-c2ccccc2OC(F)(F)F)o1)NC(=O)c1ccccc1,–
1.3,O=C(O)/C(=C/c1ccc(-c2ccccc2Cl)o1)NC(=O)c1ccccc1,–
3.9,O=C(O)/C(=C/c1ccc(-c2cccc(F)c2)o1)NC(=O)c1ccccc1,–
2.6,O=C(O)/C(=C/c1ccc(-c2ccccc2F)s1)NC(=O)c1ccccc1,–
1.5,O=C(O)/C(=C/c1ccc(-c2ccccc2)s1)NC(=O)c1ccccc1,–
20,COc1ccccc1-c1ccc(/C=C(\NC(=O)c2ccccc2)C(=O)O)o1,–
0.66,O=C(O)/C(=C/c1ccc(-c2ccccc2Cl)s1)NC(=O)c1ccccc1,–
0.1,O=C(O)/C(=C/c1ccc(Oc2ccccc2Br)cc1)NC(=O)c1ccccc1,CC50 (Hepatitis C virus [2]): > 100 µM; half-life [3]: 1.5 h; EC50 (Hepatitis C virus [4]): 28 µM; Cmax [5]: 9 µM; bioavailability [6]: 21%; clearance [7]: 3.33 mL/min/kg
5.2,O=C(O)/C(=C/c1ncc(-c2ccccc2Cl)s1)NC(=O)c1ccccc1,–
44,CC(C)Oc1ccccc1Oc1ccc(/C=C(\NC(=O)c2ccccc2)C(=O)O)cc1,–
0.04,O=C(O)/C(=C/c1ccc(Oc2ccccc2I)cc1)NC(=O)c1ccccc1,CC50 (Hepatitis C virus [2]): > 100 µM; EC50 (Hepatitis C virus [4]): 29 µM
8.7,O=C(O)/C(=C/c1ccc(-c2cccc(C(F)(F)F)c2)o1)NC(=O)c1ccccc1,–

IC50 [1] [µM],Compound,further results
48,O=C(O)/C(=C/c1ccc(Oc2ccccc2-c2ccccc2)cc1)NC(=O)c1ccccc1,–
25,O=C(O)/C(=C/c1ccc(-c2cccc([N+](=O)[O-])c2)o1)NC(=O)c1ccccc1,–
0.03,O=C(O)/C(=C/c1ccc(Oc2c(F)cccc2Br)cc1)NC(=O)c1ccccc1,CC50 (Hepatitis C virus [2]): > 100 µM; EC50 (Hepatitis C virus [4]): 50 µM
17,O=C(O)/C(=C/c1ccc(Oc2ccccc2)cc1)NC(=O)c1ccccc1,–
6.9,O=C(O)/C(=C/c1ccc(Oc2ccccc2F)cc1)NC(=O)c1ccccc1,–
22,O=C(O)/C(=C/c1ccc(-c2ccc(OC(F)(F)F)cc2)o1)NC(=O)c1ccccc1,–
6.7,O=C(O)/C(=C/c1ccc(-c2ccccc2)o1)NC(=O)c1ccccc1,CC50 (Hepatitis C virus [2]): > 100 µM; EC50 (Hepatitis C virus [4]): > 100 µM
73,O=C(O)/C(=C/c1ccc(Oc2ccccc2[N+](=O)[O-])cc1)NC(=O)c1ccccc1,–
0.2,O=C(O)/C(=C/c1ccc(Oc2ccccc2Cl)cc1)NC(=O)c1ccccc1,CC50 (Hepatitis C virus [2]): > 100 µM; half-life [3]: 1.9 h; EC50 (Hepatitis C virus [4]): 60 µM; Cmax [5]: 22 µM; bioavailability [6]: 42%; clearance [7]: 5.17 mL/min/kg
9.4,CCc1ccccc1Oc1ccc(/C=C(\NC(=O)c2ccccc2)C(=O)O)cc1,–
6.9,O=C(O)/C(=C/c1ccc(-c2ccccc2[N+](=O)[O-])o1)NC(=O)c1ccccc1,–
13,O=C(O)/C(=C/c1ccc(-c2ccc(C(F)(F)F)cc2)o1)NC(=O)c1ccccc1,–
3.1,O=C(O)/C(=C/c1ccc(-c2ccccc2F)o1)NC(=O)c1ccccc1,–
1.3,O=C(O)/C(=C/c1ccc(Oc2ccccc2C(F)(F)F)cc1)NC(=O)c1ccccc1,–
1.4,Cc1ccccc1-c1ccc(/C=C(\NC(=O)c2ccccc2)C(=O)O)s1,–
0.58,Cc1ccccc1Oc1ccc(/C=C(\NC(=O)c2ccccc2)C(=O)O)cc1,–
0.07,O=C(O)/C(=C/c1ccc(Oc2c(F)cccc2Cl)cc1)NC(=O)c1ccccc1,–
5.5,O=C(O)/C(=C/c1ccc(Oc2c(Cl)cccc2[N+](=O)[O-])cc1)NC(=O)c1ccccc1,–
0.31,Nc1cccc(Cl)c1Oc1ccc(/C=C(\NC(=O)c2ccccc2)C(=O)O)cc1,–
28,CC(C)c1ccccc1Oc1ccc(/C=C(\NC(=O)c2ccccc2)C(=O)O)cc1,–
1.3,O=C(O)/C(=C/c1cccc(-c2ccccc2Cl)c1)NC(=O)c1ccccc1,–
3,Cc1ccccc1-c1ccc(/C=C(\NC(=O)c2ccccc2)C(=O)O)o1,–
6,O=C(O)/C(=C/c1ccc(-c2cccc(Cl)c2)o1)NC(=O)c1ccccc1,–

Compound,IC50 [1] [µM],further results
O=C(O)/C(=C/c1cncc(-c2ccccc2Cl)c1)NC(=O)c1ccccc1,> 100,–
CC(C)(C)c1ccccc1Oc1ccc(/C=C(\NC(=O)c2ccccc2)C(=O)O)cc1,> 100,–
O=C(O)/C(=C/c1ccc(-c2cccc(CO)c2)o1)NC(=O)c1ccccc1,> 100,–
O=C(O)/C(=C/c1ccc(-c2ccc([N+](=O)[O-])cc2)o1)NC(=O)c1ccccc1,> 100,–
O=C(O)/C(=C/c1ccc(-c2ccc(CO)cc2)o1)NC(=O)c1ccccc1,> 100,–
NS(=O)(=O)c1cccc(-c2ccc(/C=C(\NC(=O)c3ccccc3)C(=O)O)o2)c1,> 100,–
NS(=O)(=O)c1ccc(-c2ccc(/C=C(\NC(=O)c3ccccc3)C(=O)O)o2)cc1,> 100,–
